Source: US20230085307A1, “PYRIDAZINONE COMPOUND AND HERBICIDE” (NISSAN CHEMICAL CORPORATION, priority 2019, published 2023)

What was measured:
southern crabgrass = assay: Test Example 5: herbicidal effect by foliage application, plastic box (Table 20, symbol F); type: in vivo, southern crabgrass (Digitaria ciliaris); conditions: foliage application
In short: (§1)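 Sow seeds spot-wise in sterilized diluvial soil; cover with ~1.5 cm soil. Grow 14 days in greenhouse, 25° C. to 30° C. Spray foliage with emulsion diluted to predetermined amount. Rate effect after 3 weeks.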

Japanese bulrush [1] = assay: Test Example 2: herbicidal activity, application during weed generation under submerged conditions (Table 17, symbol B); type: in vivo, Japanese bulrush (Schoenoplectus juncoides); conditions: AAH 320 g/ha; application during weed generation, submerged conditions
In short: (§2)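 Alluvial soil in Wagner pots was flooded to 4 cm depth and sown with the three weeds together; pots were kept in a greenhouse at 25° C. to 30° C. At the one to two leaf stage, an emulsion formulation diluted in water to a set rate went onto the water surface; scored three weeks later.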

barnyard grass [2] = assay: Test Example 4: herbicidal effect by soil treatment (Table 19, symbol H); type: in vivo, barnyard grass (Echinochloa crus-galli)
In short: (§3)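 Soil-surface application: an emulsion agent diluted with water to the predetermined dose is sprayed uniformly over seeds lying under roughly 1.5 cm of sterilized diluvial soil. Boxes stay in a greenhouse at 25° C. to 30° C. Three weeks later, each species is graded on previously defined criteria.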

oval-leafed pondweed [3] = assay: Test Example 2: herbicidal activity, application during weed generation under submerged conditions (Table 17, symbol C); type: in vivo, oval-leafed pondweed (Monochoria vaginalis); conditions: AAH 320 g/ha; application during weed generation, submerged conditions
In short: as §2

blackgrass [4] = assay: Test Example 4: herbicidal effect by soil treatment (Table 19, symbol J); type: in vivo, blackgrass (Alopecurus myosuroides)
In short: as §3

persian speedwell = assay: Test Example 5: herbicidal effect by foliage application, plastic box (Table 20, symbol R); type: in vivo, Persian speedwell (Veronica persica); conditions: foliage application
In short: as §1

windgrass = assay: Test Example 5: herbicidal effect by foliage application, plastic box (Table 20, symbol L); type: in vivo, windgrass (Apera spica-venti); conditions: foliage application
In short: as §1

Japanese bulrush [5] = assay: Test Example 1: herbicidal activity, application before weed generation under submerged conditions (Table 16, symbol B); type: in vivo, Japanese bulrush (Schoenoplectus juncoides); conditions: 320 g/ha applied herbicide
In short: (§4)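 Alluvial soil was flooded to 4 cm depth, weed seeds were sown mixed and 2.5-leaf rice seedlings were transplanted. On sowing day, the compound's emulsion, diluted in water to a set dose, was applied to the water surface. Plants grew at 25–30 °C and were scored 0–5 after three weeks.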

velvetleaf [6] = assay: Test Example 5: herbicidal effect by foliage application, plastic box (Table 20, symbol M); type: in vivo, velvetleaf (Abutilon theophrasti); conditions: foliage application
In short: as §1

green foxtail [7] = assay: Test Example 4: herbicidal effect by soil treatment (Table 19, symbol G); type: in vivo, green foxtail (Setaria viridis)
In short: as §3

barnyard grass [8] = assay: Test Example 3: herbicidal effect by foliage application, Wagner pot (Table 18, symbol H); type: in vivo, barnyard grass (Echinochloa crus-galli); conditions: 320 g/ha
In short: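 Plants were sown in alluvial soil held under 0.1–0.5 cm standing water and grown 14 days in a greenhouse at 25–30 °C. An emulsifiable formulation, water-diluted to the set dose, was then sprayed onto the foliage, and effects were scored three weeks later using previously defined criteria.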

green foxtail [9] = assay: Test Example 5: herbicidal effect by foliage application, plastic box (Table 20, symbol G); type: in vivo, green foxtail (Setaria viridis); conditions: foliage application
In short: as §1

blackgrass [10] = assay: Test Example 5: herbicidal effect by foliage application, plastic box (Table 20, symbol J); type: in vivo, blackgrass (Alopecurus myosuroides); conditions: foliage application, AAH 320 g/ha, three weeks after application
In short: as §1

oval-leafed pondweed [11] = assay: Test Example 1: herbicidal activity, application before weed generation under submerged conditions (Table 16, symbol C); type: in vivo, oval-leafed pondweed (Monochoria vaginalis); conditions: 320 g/ha applied herbicide
In short: as §4

redroot pigweed = assay: Test Example 4: herbicidal effect by soil treatment (Table 19, symbol N); type: in vivo, redroot pigweed (Amaranthus retroflexus)
In short: as §3

velvetleaf [12] = assay: Test Example 4: herbicidal effect by soil treatment (Table 19, symbol M); type: in vivo, velvetleaf (Abutilon theophrasti)
In short: as §3

[13] = AAH 320 g/ha, three weeks after application
[14] = amount of applied herbicide 320 g/ha
[15] = 320 g/ha, 3 weeks after application

SMILES: Cc1nn(C)c(=O)c(-c2c(-c3ccc4c(c3)OCCO4)sc3ccccc23)c1O [1-089]
- F: southern crabgrass, herbicidal effect (southern crabgrass; [13]): 4 (Herbicidal rate of 70% or more and less than 90%)
- herbicidal effect rating, B: Japanese bulrush (Japanese bulrush [1]): 1 (Herbicidal rate of 5% or more and less than 20%)
- herbicidal effect rating, H: barnyard grass (barnyard grass [2]; [14]): 5 (Herbicidal rate of 90% or more (almost completely withered))
- herbicidal effect rating, C: oval-leafed pondweed (oval-leafed pondweed [3]): 1 (Herbicidal rate of 5% or more and less than 20%)
- herbicidal effect rating, J: blackgrass (blackgrass [4]; [14]): 0 (Herbicidal rate of 5% or less (almost no effect))
- R: persian speedwell, herbicidal effect (persian speedwell; [13]): 5 (Herbicidal rate of 90% or more (almost completely withered))
- L: windgrass, herbicidal effect (windgrass; [13]): 4 (Herbicidal rate of 70% or more and less than 90%)
- Herbicidal effect on B: Japanese bulrush (grade 0-5) (Japanese bulrush [5]): 4 (Herbicidal rate of 70% or more and less than 90%)
- M: velvetleaf, herbicidal effect (velvetleaf [6]; [13]): 5 (Herbicidal rate of 90% or more (almost completely withered))
- herbicidal effect rating, G: green foxtail (green foxtail [7]; [14]): 5 (Herbicidal rate of 90% or more (almost completely withered))
- herbicidal effect on H (barnyard grass), rating 0-5 (barnyard grass [8]): 5 (Herbicidal rate of 90% or more (almost completely withered))
- G: green foxtail, herbicidal effect (green foxtail [9]; [13]): 5 (Herbicidal rate of 90% or more (almost completely withered))
- J: blackgrass, herbicidal effect (blackgrass [10]): 0 (Herbicidal rate of 5% or less (almost no effect))
- Herbicidal effect on C: oval-leafed pondweed (grade 0-5) (oval-leafed pondweed [11]): 4 (Herbicidal rate of 70% or more and less than 90%)
- herbicidal effect rating, N: redroot pigweed (redroot pigweed; [14]): 4 (Herbicidal rate of 70% or more and less than 90%)
- herbicidal effect rating, M: velvetleaf (velvetleaf [12]; [14]): 2 (Herbicidal rate of 20% or more and less than 40%)

SMILES: Cc1nn(C)c(=O)c(-c2c(-c3ccccc3OC(F)(F)F)sc3ccc(F)cc23)c1O [2-043]
- effect on southern crabgrass (F) (southern crabgrass; [15]): 4 (Herbicidal rate of 70% or more and less than 90%)
- herbicidal effect rating, B: Japanese bulrush (Japanese bulrush [1]): 2 (Herbicidal rate of 20% or more and less than 40%)
- herbicidal effect rating, H: barnyard grass (barnyard grass [2]; 320 g/ha): 4 (Herbicidal rate of 70% or more and less than 90%)
- herbicidal effect rating, C: oval-leafed pondweed (oval-leafed pondweed [3]): 0 (Herbicidal rate of 5% or less (almost no effect))
- herbicidal effect rating, J: blackgrass (blackgrass [4]; 320 g/ha): 0 (Herbicidal rate of 5% or less (almost no effect))
- effect on persian speedwell (R) (persian speedwell; [15]): 5 (Herbicidal rate of 90% or more (almost completely withered))
- effect on windgrass (L) (windgrass; [15]): 3 (Herbicidal rate of 40% or more and less than 70%)
- Herbicidal effect on B: Japanese bulrush (grade 0-5) (Japanese bulrush [5]): 2 (Herbicidal rate of 20% or more and less than 40%)
- effect on velvetleaf (M) (velvetleaf [6]; [15]): 5 (Herbicidal rate of 90% or more (almost completely withered))
- herbicidal effect rating, G: green foxtail (green foxtail [7]; 320 g/ha): 5 (Herbicidal rate of 90% or more (almost completely withered))
- herbicidal effect on H (barnyard grass), rating 0-5 (barnyard grass [8]): 5 (Herbicidal rate of 90% or more (almost completely withered))
- effect on green foxtail (G) (green foxtail [9]; [15]): 5 (Herbicidal rate of 90% or more (almost completely withered))
- Herbicidal effect on C: oval-leafed pondweed (grade 0-5) (oval-leafed pondweed [11]): 1 (Herbicidal rate of 5% or more and less than 20%)
- herbicidal effect rating, N: redroot pigweed (redroot pigweed; 320 g/ha): 5 (Herbicidal rate of 90% or more (almost completely withered))
- herbicidal effect rating, M: velvetleaf (velvetleaf [12]; 320 g/ha): 3 (Herbicidal rate of 40% or more and less than 70%)
